Here are results for 1 molecule from US20240059688A1, “CONOLIDINE ANALOGUES AS SELECTIVE ACKR3 MODULATORS FOR THE TREATMENT OF CANCER” (Luxembourg Institute of Health (LIH), priority 2020, published 2024).

Structures are written as SMILES.

Assay type in all cases: cell-based
Common to all, as to conditions: conolidine 10 μM

Assay [1] deals with T1, ADRA2B (Homo sapiens, UniProt P18089).
T1 sequence (P18089 1-450): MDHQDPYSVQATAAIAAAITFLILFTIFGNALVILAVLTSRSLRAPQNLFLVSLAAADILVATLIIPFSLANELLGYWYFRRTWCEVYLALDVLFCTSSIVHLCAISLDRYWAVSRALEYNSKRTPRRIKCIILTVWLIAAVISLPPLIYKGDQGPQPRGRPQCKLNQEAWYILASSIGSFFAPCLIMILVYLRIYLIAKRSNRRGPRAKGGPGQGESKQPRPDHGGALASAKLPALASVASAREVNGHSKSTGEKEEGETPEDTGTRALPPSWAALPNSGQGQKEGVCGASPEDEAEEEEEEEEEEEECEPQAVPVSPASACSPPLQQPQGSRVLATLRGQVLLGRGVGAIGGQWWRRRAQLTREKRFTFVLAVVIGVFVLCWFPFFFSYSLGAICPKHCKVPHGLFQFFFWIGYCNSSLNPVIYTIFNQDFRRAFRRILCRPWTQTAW
The assay is described as follows: GPCR β-arrestin screening (PathHunter gpcrMAX/orphanMAX), ADRA2B. Here is the method:
(§1) In an effort to identify the target of conolidine among the GPCR family, we undertook a large scale screening program using a β-arrestin recruitment assay based on β-galactosidase complementation (PathHunter, DiscoverX). Over 240 receptors were tested for their ability to be activated or inhibited by conolidine (10 μM) (data not shown). These included 168 GPCRs from the gpcrMAX panel, covering over 60 distinct receptor families such as adrenergic, dopamine, P2Y or serotonin and 74 GPCRs from the orphanMAX panel.

The target of assay [2] is T2, ADRA2BC (Homo sapiens, UniProt P18825).
T2 sequence (P18825 1-462): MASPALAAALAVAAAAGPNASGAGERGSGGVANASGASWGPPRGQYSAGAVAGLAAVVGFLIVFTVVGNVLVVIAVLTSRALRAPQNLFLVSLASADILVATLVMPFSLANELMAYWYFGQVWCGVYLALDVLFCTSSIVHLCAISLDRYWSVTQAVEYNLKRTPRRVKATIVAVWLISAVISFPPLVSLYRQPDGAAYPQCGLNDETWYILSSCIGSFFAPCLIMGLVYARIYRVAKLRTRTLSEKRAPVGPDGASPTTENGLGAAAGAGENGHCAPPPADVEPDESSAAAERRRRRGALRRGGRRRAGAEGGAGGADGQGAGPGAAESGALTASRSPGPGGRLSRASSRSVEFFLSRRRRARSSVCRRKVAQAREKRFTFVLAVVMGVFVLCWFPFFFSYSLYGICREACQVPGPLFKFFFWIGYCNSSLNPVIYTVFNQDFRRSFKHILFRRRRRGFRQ
The assay is described as follows: GPCR β-arrestin screening (PathHunter gpcrMAX/orphanMAX), ADRA2BC. The procedure:
as §1

The target of assay [3] is T3, Mast cells G protein-coupled receptor-X2 (MRGPRX2) (Homo sapiens, UniProt Q96LB1).
T3 sequence (Q96LB1 1-330): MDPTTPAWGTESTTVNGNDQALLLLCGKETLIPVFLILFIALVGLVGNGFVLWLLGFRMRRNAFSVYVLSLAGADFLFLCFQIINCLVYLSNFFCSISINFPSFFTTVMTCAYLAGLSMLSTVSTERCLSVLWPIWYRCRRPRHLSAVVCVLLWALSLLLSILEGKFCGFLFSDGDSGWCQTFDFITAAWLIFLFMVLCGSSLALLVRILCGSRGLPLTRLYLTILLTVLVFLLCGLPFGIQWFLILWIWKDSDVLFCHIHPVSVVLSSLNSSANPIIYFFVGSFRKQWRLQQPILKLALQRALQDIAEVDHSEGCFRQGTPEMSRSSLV
The assay is described as follows: GPCR β-arrestin screening (PathHunter gpcrMAX/orphanMAX), MRGPRX2. Here is the method: as §1

In the case of `C/C=C1/CN2CC[C@H]1C(=O)c1[nH]c3ccccc3c1C2` [WW-1, (4E,5R)-4-ethylidene-1,4,5,7-tetrahydro-2,5-ethanoazocino[4,3-b]indol-6(3H)-one], the “activity towards ADRA2B in GPCR screening” value in assay [1] is given as “No activity was detected”. Further, the “activity towards ADRA2BC in GPCR screening” value in assay [2] is listed as “No activity was detected”. Further, in assay [3], the “activation of MRGPRX2 in GPCR screening” value was “only partially activated”.
